Measured values published in ChEMBL document CHEMBL1127385, “Synthesis and diuretic activity of alkyl- and arylguanidine analogs of N,N'-dicyclohexyl-4-morpholinecarboxamidine in rats and dogs” (J Med Chem, 1994).

Legend:
Conditions in all cases: in vivo, po
Rattus norvegicus [1] = experiment: Total electrolytic excretion of sodium in urine of rats after peroral administration of 27 uM/Kg of drug; type: ADME, organism-based
Rattus norvegicus [2] = experiment: Tested for the diuretic activity by measuring the urinary volume after peroral administering 27 uM/Kg of drug in rats; type: ADME, organism-based, Urine
Rattus norvegicus [3] = experiment: Total electrolytic excretion of potassium in urine of rats after peroral administration of 27 uM/Kg of drug; type: ADME, organism-based
Rattus norvegicus [4] = experiment: Ratio of Total electrolytic excretion of sodium and potassium in urine of rats after peroral administration of 270 uM/Kg of drug; type: ADME, organism-based
Rattus norvegicus [5] = experiment: Total electrolytic excretion of chlorine in urine of rats after peroral administration of 80.9 uM/Kg of drug; type: ADME, organism-based
Rattus norvegicus [6] = experiment: Total electrolytic excretion of potassium in urine of rats after peroral administration of 80.9 uM/Kg of drug; type: ADME, organism-based
Rattus norvegicus [7] = experiment: Total electrolytic excretion of chlorine in urine of rats after peroral administration of 27 uM/Kg of drug; type: ADME, organism-based
Rattus norvegicus [8] = experiment: Total electrolytic excretion of sodium in urine of rats after peroral administration of 270 uM/Kg of drug; type: ADME, organism-based
Rattus norvegicus [9] = experiment: Tested for the diuretic activity by measuring the urinary volume after peroral administering 80.9 uM/Kg of drug in rats; type: ADME, organism-based, Urine
Rattus norvegicus [10] = experiment: Ratio of Total electrolytic excretion of sodium and potassium in urine of rats after peroral administration of 80.9 uM/Kg of drug; type: ADME, organism-based
Rattus norvegicus [11] = experiment: Tested for the diuretic activity by measuring the urinary volume after peroral administering 270 uM/Kg of drug in rats; type: ADME, organism-based, Urine
Rattus norvegicus [12] = experiment: Total electrolytic excretion of potassium in urine of rats after peroral administration of 270 uM/Kg of drug; type: ADME, organism-based
Rattus norvegicus [13] = experiment: Ratio of Total electrolytic excretion of sodium and potassium in urine of rats after peroral administration of 27 uM/Kg of drug; type: ADME, organism-based
Rattus norvegicus [14] = experiment: Total electrolytic excretion of chlorine in urine of rats after peroral administration of 270 uM/Kg of drug; type: ADME, organism-based
Rattus norvegicus [15] = experiment: Total electrolytic excretion of sodium in urine of rats after peroral administration of 80.9 uM/Kg of drug; type: ADME, organism-based
Rattus norvegicus [16] = experiment: Total electrolytic excretion of potassium in urine of rats after peroral administration of 28.9 uM/Kg of drug; type: ADME, organism-based
Rattus norvegicus [17] = experiment: Total electrolytic excretion of chlorine in urine of rats after peroral administration of 289 uM/Kg of drug; type: ADME, organism-based
Rattus norvegicus [18] = experiment: Total electrolytic excretion of potassium in urine of rats after peroral administration of 86.9 uM/Kg of drug; type: ADME, organism-based
Rattus norvegicus [19] = experiment: Total electrolytic excretion of sodium in urine of rats after peroral administration of 86.9 uM/Kg of drug; type: ADME, organism-based
Rattus norvegicus [20] = experiment: Tested for the diuretic activity by measuring the urinary volume after peroral administering 289 uM/Kg of drug in rats; type: ADME, organism-based, Urine
Rattus norvegicus [21] = experiment: Total electrolytic excretion of sodium in urine of rats after peroral administration of 28.9 uM/Kg of drug; type: ADME, organism-based
Rattus norvegicus [22] = experiment: Total electrolytic excretion of sodium in urine of rats after peroral administration of 289 uM/Kg of drug; type: ADME, organism-based
Rattus norvegicus [23] = experiment: Ratio of Total electrolytic excretion of sodium and potassium in urine of rats after peroral administration of 86.9 uM/Kg of drug; type: ADME, organism-based
Rattus norvegicus [24] = experiment: Total electrolytic excretion of chlorine in urine of rats after peroral administration of 28.9 uM/Kg of drug; type: ADME, organism-based
Rattus norvegicus [25] = experiment: Ratio of Total electrolytic excretion of sodium and potassium in urine of rats after peroral administration of 28.9 uM/Kg of drug; type: ADME, organism-based
Rattus norvegicus [26] = experiment: Ratio of Total electrolytic excretion of sodium and potassium in urine of rats after peroral administration of uM/Kg of drug; type: ADME, organism-based
Rattus norvegicus [27] = experiment: Tested for the diuretic activity by measuring the urinary volume after peroral administering 28.9 uM/Kg of drug in rats; type: ADME, organism-based, Urine
Rattus norvegicus [28] = experiment: Tested for the diuretic activity by measuring the urinary volume after peroral administering 86.9 uM/Kg of drug in rats; type: ADME, organism-based, Urine
Rattus norvegicus [29] = experiment: Total electrolytic excretion of chlorine in urine of rats after peroral administration of 86.9 uM/Kg of drug; type: ADME, organism-based
Rattus norvegicus [30] = experiment: Total electrolytic excretion of potassium in urine of rats after peroral administration of 289 uM/Kg of drug; type: ADME, organism-based

## CC(C)CC/N=C(/NC1CCCCC1)N1CCOCC1
Rattus norvegicus [1]
  Excretion Na+: 0.85 m equiv
Rattus norvegicus [2]
  V: 6.6 mL
Rattus norvegicus [3]
  Excretion K+: 0.31 m equiv
Rattus norvegicus [4]
  Ratio: 5.2 [Na+]/[K+]
Rattus norvegicus [5]
  Excretion Cl-: 1.31 m equiv
Rattus norvegicus [6]
  Excretion K+: 0.33 m equiv
Rattus norvegicus [7]
  Excretion Cl-: 0.96 m equiv
Rattus norvegicus [8]
  Excretion Na+: 1.12 m equiv
Rattus norvegicus [9]
  V: 8.4 mL
Rattus norvegicus [10]
  Ratio: 3.9 [Na+]/[K+]
Rattus norvegicus [11]
  V: 5.6 mL
Rattus norvegicus [12]
  Excretion K+: 0.21 m equiv
Rattus norvegicus [13]
  Ratio: 2.7 [Na+]/[K+]
Rattus norvegicus [14]
  Excretion Cl-: 1.01 m equiv
Rattus norvegicus [15]
  Excretion Na+: 1.28 m equiv

## C1CCC(/N=C(/NC2CCCCC2)N2CCSCC2)CC1
Rattus norvegicus [16]
  Excretion K+: 0.36 m equiv
Rattus norvegicus [17]
  Excretion Cl-: 1.51 m equiv
Rattus norvegicus [18]
  Excretion K+: 0.32 m equiv
Rattus norvegicus [19]
  Excretion Na+: 1.81 m equiv
Rattus norvegicus [20]
  V: 9.2 mL
Rattus norvegicus [21]
  Excretion Na+: 1.32 m equiv
Rattus norvegicus [22]
  Excretion Na+: 1.59 m equiv
Rattus norvegicus [23]
  Ratio: 5.7
Rattus norvegicus [24]
  Excretion Cl-: 1.49 m equiv
Rattus norvegicus [25]
  Ratio: 3.7
Rattus norvegicus [26]
  Ratio: 5.5
Rattus norvegicus [27]
  V: 9.1 mL
Rattus norvegicus [28]
  V: 11.3 mL
Rattus norvegicus [29]
  Excretion Cl-: 1.78 m equiv
Rattus norvegicus [30]
  Excretion K+: 0.27 m equiv
